Source: PMC8491704, “Pharmacokinetic study of Tangwang Mingmu granule for the management of diabetic retinopathy based on network pharmacology” (Pharmaceutical Biology, 2021)
Read-outs that look alike come from different tables or passages of the source. Each block holds one compound with its values, some of them ahead of it.

What was measured:
[1] = Stability of QC samples of 8 compounds in rat plasma (25 °C 4 h, autosampler 12 h, three freeze-thaw cycles, −80 °C 7 d); type: in vitro ADME
Method: The calibration curves were assessed at eight concentration levels using the correlation coefficient (r). The lower limit of quantification (LLOQ) could fulfil the analytical requirements and achieved reliable accuracy and precision with a signal-to-noise ratio (S/N) ≥ 10. To determine intra- and inter-day precision and accuracy, six replicate quality control (QC) samples at three concentrations were prepared. Inter- and intra-day precision was evaluated by determining relative standard deviation (RSD) values, while accuracy was expressed in terms of the relative error (RE). The extraction recoveries were determined using three concentration levels and calculated by comparing the peak area of extracted samples with post-extracted spiked samples. Subsequently, matrix effects were assessed using the peak area of post-extracted spiked samples contrasted with QC samples at the three concentration levels. The stability test of QC samples at the three concentration levels was as follows: storage at 25 °C for 4 h, storage in an autosampler for 12 h, freeze-thaw cycle for three times, and storage at −80 °C for 7 d.
The stability tests were carried out under three freeze-thaw cycles, at 25 °C for 4 h, in an autosampler for 12 h, and at −80 °C for 7 d.

[2] = Pharmacokinetic study in SD rats after oral administration of TWMM (UPLC-QQQ-MS of plasma); type: in vivo, Sprague-Dawley (SD) rats; conditions: oral TWMM 9.6 g/kg
Method: Chromatographic separation was performed using an ACQUITY UPLC H-Class system equipped with a 1.8 μm HSS T3 analytical column (100 mm × 2.1 i.d., Waters Corporation, Milford, USA). […] ESI source was set to negative ionisation mode while the analysis was performed using multiple reaction monitorin. Ion spray voltage (3000 V), capillary temperature (450 °C), and the source parameters of the nine compounds are shown in Table 2.
The data obtained from the UPLC/Q-Orbitrap MS was imported into Xcalibur 4.0 software for analysis. Furthermore, the constituents acquired using GCMS-QP 2010 were profiled by comparison using the National Institute of Standards and Technology (NIST) database. The pharmacokinetic data were processed through MassLynx 4.1, and DAS 2.0 software was used to calculate the pharmacokinetic parameters according to the compartment model.
Six male SD rats (average weight: 220 ± 10 g) were acquired from Beijing Vital-River Laboratory Animal Technology Co., Ltd. All rats were acclimatized to an environmentally controlled laboratory for a week. Following this period, the rats were exposed to fasting conditions for 12 h but were allowed free access to water before the experiment. The rats were orally administered TWMM at a dose of 9.6 g/kg. Blood samples (300 µL) were collected into heparinized centrifuge tubes from the fossa orbitalis at pre-dose and 0.03, 0.08, 0.17, 0.25, 0.5, 1, 2, 4, 8, 12, 24, and 36 h intervals. The samples were immediately centrifuged at 6000 g for 10 min at 4 °C and the supernatants were transferred to clean centrifuge tubes.
Each 100 µL plasma sample was mixed with 20 µL of methanol, 20 µL of IS (5 µg/mL), and 600 µL acetonitrile. The mixtures were centrifuged at 15,000 g for 10 min at 4 °C after being vortexed for 3 min. The obtained supernatants were transferred to clean 1.5 mL centrifuge tubes, followed by evaporation under a milt nitrogen stream. Next, the obtained residues were individually redissolved in 100 µL of methanol and centrifuged at 15,000 g for 10 min at 4 °C after vortexed for 3 min. Lastly, 10 µL of individual supernatant was injected for analysis.

Compound: COc1ccc(-c2cc(=O)c3c(O)cc(O[C@@H]4O[C@H](CO[C@@H]5O[C@@H](C)[C@H](O)[C@@H](O)[C@H]5O)[C@@H](O)[C@H](O)[C@H]4O)cc3o2)cc1 [Linarin]
Stability in rat plasma, Autosampler (12 h, 4 °C), Measured ([1]; QC concentration 1 ng/mL, autosampler 12 h, 4 °C, rat plasma, n = 3): 1.1 ± 0.1 ng/mL | Stability in rat plasma, Long term (7 day, –80 °C), Measured ([1]; QC concentration 1 ng/mL, long term 7 day, –80 °C, rat plasma, n = 3): 1.1 ± 0.1 ng/mL | Stability in rat plasma, Room temperature (4 h, 25 °C), Measured ([1]; QC concentration 1 ng/mL, room temperature 25 °C, rat plasma, n = 3): 1.0 ± 0.1 ng/mL | Stability in rat plasma, Three freeze/thaw cycles, Measured ([1]; QC concentration 1 ng/mL, three freeze/thaw cycles, rat plasma, n = 3): 1.0 ± 0.0 ng/mL | Stability in rat plasma, Autosampler (12 h, 4 °C), Measured ([1]; QC concentration 10 ng/mL, autosampler 12 h, 4 °C, rat plasma, n = 3): 10.2 ± 0.6 ng/mL | Stability in rat plasma, Long term (7 day, –80 °C), Measured ([1]; QC concentration 10 ng/mL, long term 7 day, –80 °C, rat plasma, n = 3): 10.2 ± 0.4 ng/mL | Stability in rat plasma, Room temperature (4 h, 25 °C), Measured ([1]; QC concentration 10 ng/mL, room temperature 25 °C, rat plasma, n = 3): 11.9 ± 0.1 ng/mL | Stability in rat plasma, Three freeze/thaw cycles, Measured ([1]; QC concentration 10 ng/mL, three freeze/thaw cycles, rat plasma, n = 3): 11.6 ± 0.5 ng/mL | Stability in rat plasma, Autosampler (12 h, 4 °C), Measured ([1]; QC concentration 200 ng/mL, autosampler 12 h, 4 °C, rat plasma, n = 3): 208.5 ± 2.0 ng/mL | Stability in rat plasma, Long term (7 day, –80 °C), Measured ([1]; QC concentration 200 ng/mL, long term 7 day, –80 °C, rat plasma, n = 3): 221.0 ± 11.2 ng/mL | Stability in rat plasma, Room temperature (4 h, 25 °C), Measured ([1]; QC concentration 200 ng/mL, room temperature 25 °C, rat plasma, n = 3): 223.3 ± 5.0 ng/mL | Stability in rat plasma, Three freeze/thaw cycles, Measured ([1]; QC concentration 200 ng/mL, three freeze/thaw cycles, rat plasma, n = 3): 219.4 ± 13.8 ng/mL | AUC (0–36) ([2]; n = 6): 12.04 ± 4.72 ng·h/mL | AUC (0–∞) ([2]; n = 6): 12.04 ± 4.72 ng·h/mL | Cmax ([2]; n = 6): 12.78 ± 8.82 ng/mL | MRT (0–36) ([2]; n = 6): 4.26 ± 2.67 h | MRT (0–∞) ([2]; n = 6): 4.26 ± 2.68 h | Tmax ([2]; n = 6): 0.16 ± 0.10 h | t1/2 ([2]; n = 6): 2.81 ± 0.21 h | Tmax ([2]; n = 6, listed as linarin): ≤ 1 h | t1/2 ([2]; n = 6, listed as linarin): rapid elimination

Stability in rat plasma, Three freeze/thaw cycles, Measured ([1]; rat, plasma, 0.5 ng/mL): 0.5 ± 0.1 ng/mL | Stability in rat plasma, Three freeze/thaw cycles, Measured ([1]; rat, plasma, 5 ng/mL): 5.1 ± 0.2 ng/mL | Stability in rat plasma, Three freeze/thaw cycles, Measured ([1]; rat, plasma, 100 ng/mL): 103.6 ± 9.3 ng/mL | Stability in rat plasma, Room temperature (4 h, 25 °C), Measured ([1]; rat, plasma, 0.5 ng/mL): 0.5 ± 0.1 ng/mL | Stability in rat plasma, Room temperature (4 h, 25 °C), Measured ([1]; rat, plasma, 5 ng/mL): 4.3 ± 0.5 ng/mL | Stability in rat plasma, Room temperature (4 h, 25 °C), Measured ([1]; rat, plasma, 100 ng/mL): 108.6 ± 7.8 ng/mL | Stability in rat plasma, Autosampler (12 h, 4 °C), Measured ([1]; rat, plasma, 12 h, 0.5 ng/mL): 0.4 ± 0.1 ng/mL | Stability in rat plasma, Autosampler (12 h, 4 °C), Measured ([1]; rat, plasma, 12 h, 5 ng/mL): 0.5 ± 0.0 ng/mL | Stability in rat plasma, Autosampler (12 h, 4 °C), Measured ([1]; rat, plasma, 12 h, 100 ng/mL): 93.4 ± 8.6 ng/mL | Stability in rat plasma, Long term (7 day, –80 °C), Measured ([1]; rat, plasma, 168 h, 0.5 ng/mL): 1.0 ± 0.0 ng/mL | Stability in rat plasma, Long term (7 day, –80 °C), Measured ([1]; rat, plasma, 168 h, 5 ng/mL): 4.9 ± 0.3 ng/mL | Stability in rat plasma, Long term (7 day, –80 °C), Measured ([1]; rat, plasma, 168 h, 100 ng/mL): 113.9 ± 9.9 ng/mL | half-life ([2]; male, Sprague-Dawley, rat, n = 6): 3.36 h | AUC(0-t) ([2]; male, Sprague-Dawley, rat, n = 6, read-out: AUC (0–36)): 1.03 ± 0.75 ng·h/mL | Cmax ([2]; male, Sprague-Dawley, rat, n = 6, read-out: Cmax): 0.9 ± 0.82 ng/mL | MRT last ([2]; male, Sprague-Dawley, rat, n = 6, read-out: MRT (0–36)): 1.53 ± 1.25 h | MRT inf ([2]; male, Sprague-Dawley, rat, n = 6, read-out: MRT (0–∞)): 1.54 ± 1.25 h | AUC(0-inf) ([2]; male, Sprague-Dawley, rat, read-out: areas under the concentration-time curve (AUC0–∞)): 1.03 ± 0.75 ng·h/mL | Tmax ([2]; male, Sprague-Dawley, rat, po, 9.6 g/kg, n = 6, read-out: Tmax): 1.37 ± 1.6 h | t1/2 ([2]; n = 6): rapid elimination
Compound: C/C=C1/[C@H](O[C@@H]2O[C@H](CO)[C@@H](O)[C@H](O)[C@H]2O)OC=C(C(=O)OC)[C@H]1CC(=O)OCCc1ccc(O)c(O)c1 [Oleuropein]

areas under the concentration-time curve (AUC0–∞) [2]: 53.4 ± 32.2 ng·h/mL | AUC (0–36) ([2]; n = 6): 46.59 ± 9.58 ng·h/mL | AUC (0–∞) ([2]; n = 6): 53.37 ± 32.17 ng·h/mL | Cmax ([2]; n = 6): 14.25 ± 3.67 ng/mL | MRT (0–36) ([2]; n = 6): 11.42 ± 1.29 h | MRT (0–∞) ([2]; n = 6): 15.62 ± 10.83 h | Tmax ([2]; n = 6): 0.38 ± 0.31 h | t1/2 ([2]; n = 6): 29.15 ± 12.65 h | Tmax ([2]; n = 6, listed as jaspolyside): ≤ 1 h
Compound: Jaspolyside
